Each structure is given as a SMILES string.

Consider 16 compounds from patent US20240417393A1, “CERTAIN 2,5-DIAZABICYCLO[4.2.0]OCTANES AS GLP-1 RECEPTOR MODULATORS” (ASTRAZENECA AB, priority 2021, published 2024).

The target in assay [1] is T1, human phosphodiesterase-3A (Homo sapiens, UniProt Q14432).
T1 construct: host or cells: Sf9 (Spodoptera frugiperda) cells
The assay can be described thus: PDE3 Assay ([3H]cAMP to 5'AMP, SPA). It is filed as biochemical. To be noted: human recombinant PDE3A expressed in Sf9 cells; 450 nM cAMP; 20 min at 22° C. The protocol:
Evaluation of the effects of compounds on the activity of the human phosphodiesterase-3A is quantified by measuring the formation of 5′AMP from cAMP using a human recombinant is enzyme expressed in a clonal isolate of Spodoptera frugiperda cells (Sf9) cells.
The test compound, reference compound or water (control) are added to a buffer containing 40 mM tris(hydroxymethyl)aminomethane (Tris)/HCl (pH 7.4) and 8 mM MgCl2, 450 nMcAMP and 0.25 μCi [^3H]cAMP.
Thereafter, the reaction is initiated by addition of the enzyme (about 1U) and the mixture is incubated for 20 min at 22° C.
For basal control measurements, the enzyme is omitted from the reaction mixture.
Following incubation SPA beads are added. After 30 min at 22° C. under shaking, the amount of [^3H]5′AMP is quantified with a scintillation counter (Topcount, Packard).
The results are expressed as a percent inhibition of the control enzyme activity. The standard inhibitory reference compound is milrinone (CAS number 78415-72-2), which is tested in each experiment at several concentrations to obtain an inhibition curve from which its IC50 value is calculated.

For assay [2], the target named is T2, human GLP-1R receptor (Homo sapiens, UniProt P43220, L260F).
T2 construct: expressed in transfected cells; host or cells: CHO-K1 (ATCC CCL-61)
T2 sequence (P43220 24-463 L260F): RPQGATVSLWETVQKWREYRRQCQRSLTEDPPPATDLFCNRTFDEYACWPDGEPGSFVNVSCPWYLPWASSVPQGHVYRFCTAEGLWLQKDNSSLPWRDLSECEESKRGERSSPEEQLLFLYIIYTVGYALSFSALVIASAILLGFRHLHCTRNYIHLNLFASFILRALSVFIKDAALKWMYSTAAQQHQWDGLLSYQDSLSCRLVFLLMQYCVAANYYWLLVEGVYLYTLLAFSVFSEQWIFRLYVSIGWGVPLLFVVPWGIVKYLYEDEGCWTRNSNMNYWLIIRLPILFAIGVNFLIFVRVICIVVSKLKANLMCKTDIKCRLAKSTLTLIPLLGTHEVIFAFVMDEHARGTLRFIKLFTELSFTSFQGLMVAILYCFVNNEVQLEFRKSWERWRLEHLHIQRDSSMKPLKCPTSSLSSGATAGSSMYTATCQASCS
The assay can be described thus: CHOK1 GLP-1R cAMP Assay (HTRF). Format: cell-based. To be noted: CHO-K1 cells stably expressing human GLP-1R (Leu260Phe variant), 20 min at rt. A general note: In TR-FRET formats the signal depends on donor and acceptor labels being close together.

The target in assay [3] is T3, GLP-1R in a pancreatic insulinoma cell line (EndoC-PH1) (Homo sapiens, UniProt P43220).
T3 construct: host or cells: EndoC-βH1 human pancreatic beta cell line
T3 sequence (P43220 24-463): as the sequence (P43220 24-463 L260F) above, with F237L counted along it
Nature of the assay: EndoC cAMP Accumulation Assay (HTRF). It is filed as cell-based. To be noted: EndoC-PH1 human pancreatic beta cell line, endogenous GLP-1R, 30 min at rt. Summed up:
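Thawed human EndoC-βH1 cells, about 3000 per well, stimulated with compound 30 min at room temperature in HBSS/HEPES pH 7.4 with 0.1% BSA and 0.5 mM IBMX; cAMP by competitive HTRF. Responses as % activation relative to maximal GIP (82.5 nM), 4-parameter logistic fit.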

T1 sequence (Q14432 whole entry): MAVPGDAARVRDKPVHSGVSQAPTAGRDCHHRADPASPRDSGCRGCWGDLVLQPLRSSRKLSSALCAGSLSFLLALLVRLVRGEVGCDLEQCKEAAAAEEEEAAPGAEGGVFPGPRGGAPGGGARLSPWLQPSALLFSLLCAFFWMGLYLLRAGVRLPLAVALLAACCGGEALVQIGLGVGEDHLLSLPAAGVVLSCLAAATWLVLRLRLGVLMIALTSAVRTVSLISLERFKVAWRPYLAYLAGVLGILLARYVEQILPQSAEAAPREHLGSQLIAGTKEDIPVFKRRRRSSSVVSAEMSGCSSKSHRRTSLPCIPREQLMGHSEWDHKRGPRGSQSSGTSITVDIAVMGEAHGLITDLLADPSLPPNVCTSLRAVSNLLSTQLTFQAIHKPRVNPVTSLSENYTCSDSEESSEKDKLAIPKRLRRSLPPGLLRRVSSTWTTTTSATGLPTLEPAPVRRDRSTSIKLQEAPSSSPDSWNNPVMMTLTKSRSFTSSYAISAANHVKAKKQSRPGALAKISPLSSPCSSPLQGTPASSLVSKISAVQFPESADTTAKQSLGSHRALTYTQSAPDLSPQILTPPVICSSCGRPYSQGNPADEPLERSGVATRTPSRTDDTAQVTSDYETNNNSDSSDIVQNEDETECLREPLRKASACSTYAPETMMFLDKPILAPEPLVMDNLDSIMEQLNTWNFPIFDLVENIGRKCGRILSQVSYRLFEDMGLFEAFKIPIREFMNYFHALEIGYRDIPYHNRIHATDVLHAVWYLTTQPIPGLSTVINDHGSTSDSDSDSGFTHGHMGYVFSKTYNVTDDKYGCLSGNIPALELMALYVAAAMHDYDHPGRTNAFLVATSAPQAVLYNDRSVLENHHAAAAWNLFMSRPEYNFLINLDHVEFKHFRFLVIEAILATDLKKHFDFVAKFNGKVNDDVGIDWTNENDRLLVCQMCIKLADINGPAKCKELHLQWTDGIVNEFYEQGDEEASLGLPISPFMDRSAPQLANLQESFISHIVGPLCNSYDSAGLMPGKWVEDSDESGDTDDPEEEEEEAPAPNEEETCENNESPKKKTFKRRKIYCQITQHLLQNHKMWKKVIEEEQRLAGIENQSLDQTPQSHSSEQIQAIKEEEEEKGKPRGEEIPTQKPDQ

By IC50 is commonly meant the point on the concentration scale where inhibition reaches its midpoint. On to `COc1cc(C(=O)O)cc2c1nc(CN1CCN(c3cccc4c3O[C@@](C)(c3ccc(Cl)cn3)O4)[C@@H]3CC[C@@H]31)n2C[C@@H]1CCO1` (single isomer, unassigned) [Example 2d, 2-((1R*,6S*)-5-(R*)-2-(5-Chloropyridin-2-yl)-2-methylbenzo[d][1,3]dioxol-4-yl)-2,5-diazabicyclo[4.2.0]octan-2-yl)methyl)-4-methoxy-1-(((S)-oxetan-2-yl)methyl)-1H-benzo[d]imidazole-6-carboxylic acid], for which the IC50 in assay [1] was above 100000 nM.
A word on the EC50: it is the midpoint of the concentration-response curve. A low value points to a more potent agent. Consider `COc1cc(C(=O)O)cc2c1nc(CN1CCN(c3cccc4c3O[C@@](C)(c3ccc(Cl)cn3)O4)[C@@H]3CC[C@@H]31)n2C[C@@H]1CCCO1` (single isomer, unassigned) [Example 8c], for which the EC50 in assay [2] was determined as 1.6 nM; in assay [3] it was 2.6 nM. The IC50 in assay [1] is above 100000 nM.
Turning to `C[C@]1(c2ccc(Cl)cc2F)Oc2cccc(N3CCN(Cc4nc5c(F)cc(C(=O)O)cc5n4C[C@@H]4CCO4)[C@H]4CC[C@H]43)c2O1` (single isomer, unassigned) [Example 9b], the EC50 in assay [2] stood at 0.8 nM; in assay [3], 3.3 nM. In addition, the IC50 in assay [1] was above 100000 nM.
The matching figures for `C[C@]1(c2ccc(Cl)cn2)Oc2cccc(N3CCN(Cc4nc5c(Cl)cc(C(=O)O)cc5n4C[C@@H]4CCO4)[C@H]4CC[C@@H]43)c2O1` (single isomer, unassigned) [Example 3c, 4-Chloro-2-(((1R*,6R*)-5-((R*)-2-(5-chloropyridin-2-yl)-2-methylbenzo[d][1,3]dioxol-4-yl)-2,5-diazabicyclo[4.2.0]octan-2-yl)methyl)-1-(((S)-oxetan-2-yl)methyl)-1H-benzo[d]imidazole-6-carboxylic acid]: 11 nM, 8.8 nM and above 100000 nM.
Take `COc1cc(C(=O)O)cc2c1nc(CN1CCN(c3cccc4c3O[C@@](C)(c3ccc(Cl)cn3)O4)[C@H]3CC[C@@H]31)n2C[C@@H]1CCO1` (single isomer, unassigned) [Example 6a, 2-(((1R*,6R*)-5-((R*)-2-(5-Chloropyridin-2-yl)-2-methylbenzo[d][1,3]dioxol-4-yl)-2,5-diazabicyclo[4.2.0]octan-2-yl)methyl)-4-methoxy-1-(((S)-oxetan-2-yl)methyl)-1H-benzo[d]imidazole-6-carboxylic acid]: the IC50 in assay [1] was above 100000 nM.
For `COc1cc(C(=O)O)cc2c1nc(CN1CCN(c3cccc4c3O[C@@](C)(c3ccc(Cl)cn3)O4)[C@H]3CC[C@@H]31)n2C[C@@H]1CCCO1` (single isomer, unassigned) [Example 7b, 2-(((1R*,6R*)-5-((R*)-2-(5-Chloropyridin-2-yl)-2-methylbenzo[d][1,3]dioxol-4-yl)-2,5-diazabicyclo[4.2.0]octan-2-yl)methyl)-4-methoxy-1-(((S)-tetrahydrofuran-2-yl)methyl)-1H-benzo[d]imidazole-6-carboxylic acid], the figures for the EC50 in assay [2] and in assay [3] were 2.5 nM and 6.1 nM, respectively. Also, the IC50 in assay [1] was above 100000 nM.
As to `C[C@]1(c2ccc(Cl)cn2)Oc2cccc(N3CCN(Cc4nc5ccc(C(=O)O)cc5n4C[C@@H]4CCO4)[C@H]4CC[C@H]43)c2O1` (single isomer, unassigned) [Example 5a, 2-((1R*,6S*)-5-(R*)-2-(5-Chloropyridin-2-yl)-2-methylbenzo[d][1,3]dioxol-4-yl)-2,5-diazabicyclo[4.2.0]octan-2-yl)methyl)-1-(((S)-oxetan-2-yl)methyl)-1H-benzo[d]imidazole-6-carboxylic acid], the EC50 was found to be 1.9 nM in assay [2] and 6.5 nM in assay [3]. For the same compound, the IC50 in assay [1] was above 100000 nM.
Consider `COc1cc(C(=O)O)cc2c1nc(CN1CCN(c3cccc4c3O[C@@](C)(c3ccc(Cl)cn3)O4)[C@@H]3CC[C@@H]31)n2C[C@@H]1CCO1` (single isomer, unassigned) [Example 2a, 2-((1R*,6S*)-5-(R*)-2-(5-Chloropyridin-2-yl)-2-methylbenzo[d][1,3]dioxol-4-yl)-2,5-diazabicyclo[4.2.0]octan-2-yl)methyl)-4-methoxy-1-(((S)-oxetan-2-yl)methyl)-1H-benzo[d]imidazole-6-carboxylic acid], for which the IC50 in assay [1] is above 100000 nM.
Consider `CCn1ccnc1Cn1c(CN2CCN(c3cccc4c3O[C@@](C)(c3ccc(Cl)cn3)O4)[C@H]3CC[C@@H]32)nc2c(Cl)cc(C(=O)O)cc21` (single isomer, unassigned) [Example 10a], for which the EC50 came to 0.9 nM in assay [2] and 3.5 nM in assay [3]. The half-maximal inhibitory concentration (IC50) in assay [1] is above 100000 nM.
The matching figures for `C[C@]1(c2ccc(Cl)cn2)Oc2cccc(N3CCN(Cc4nc5c(F)cc(C(=O)O)cc5n4C[C@@H]4CCO4)[C@H]4CC[C@H]43)c2O1` (single isomer, unassigned) [Example 1b, 2-(((1R*,6S*)-5-((R*)-2-(5-Chloropyridin-2-yl)-2-methylbenzo[d][1,3]dioxol-4-yl)-2,5-diazabicyclo[4.2.0]octan-2-yl)methyl)-4-fluoro-1-(((S)-oxetan-2-yl)methyl)-1H-benzo[d]imidazole-6-carboxylic acid]: 1.2 nM, 2.9 nM and above 87000 nM.
The matching figures for `C[C@]1(c2ccc(Cl)cn2)Oc2cccc(N3CCN(Cc4nc5c(F)cc(C(=O)O)cc5n4C[C@@H]4CCO4)[C@H]4CC[C@H]43)c2O1` (single isomer, unassigned) [Example 1c, 2-((1R*,6S*)-5-(R*)-2-(5-Chloropyridin-2-yl)-2-methylbenzo[d][1,3]dioxol-4-yl)-2,5-diazabicyclo[4.2.0]octan-2-yl)methyl)-4-fluoro-1-(((S)-oxetan-2-yl)methyl)-1H-benzo[d]imidazole-6-carboxylic acid]: 2.2 nM, 3.2 nM and above 100000 nM.
Regarding `COc1cc(C(=O)O)cc2c1nc(CN1CCN(c3cccc4c3O[C@@](C)(c3ccc(Cl)cn3)O4)[C@@H]3CC[C@@H]31)n2C[C@@H]1CCCO1` (relative stereo) [Example 8b, 2-((1R*,6S*)-5-(R*)-2-(5-Chloropyridin-2-yl)-2-methylbenzo[d][1,3]dioxol-4-yl)-2,5-diazabicyclo[4.2.0]octan-2-yl)methyl)-4-methoxy-1-(((S)-tetrahydrofuran-2-yl)methyl)-1H-benzo[d]imidazole-6-carboxylic acid], the results for the EC50 in assay [2] and in assay [3] were 400 nM and 590 nM, respectively.
Regarding `C[C@]1(c2ccc(Cl)cn2)Oc2cccc(N3CCN(Cc4nc5c(Cl)cc(C(=O)O)cc5n4C[C@@H]4CCO4)[C@@H]4CC[C@H]43)c2O1` (single isomer, unassigned) [Example 3b], the EC50 came out at 0.9 nM in assay [2] and 2.6 nM in assay [3]. Moreover, in assay [1], the IC50 is above 100000 nM.
Turning to `C[C@]1(c2ccc(Cl)cc2F)Oc2cccc(N3CCN(Cc4nc5c(F)cc(C(=O)O)cc5n4C[C@@H]4CCO4)[C@H]4CC[C@H]43)c2O1` (single isomer, unassigned) [Example 9a], the values for the EC50 in assay [2] and in assay [3] were 57 nM and 340 nM, respectively.
The like results for `C[C@]1(c2ccc(Cl)cc2F)Oc2cccc(N3CCN(Cc4nc5ccc(C(=O)O)cc5n4C[C@@H]4CCO4)[C@H]4CC[C@@H]43)c2O1` (single isomer, unassigned) [Example 21a, 2-(((1R*,6R*)-5-((R*)-2-(4-Chloro-2-fluorophenyl)-2-methylbenzo[d][1,3]dioxol-4-yl)-2,5-diazabicyclo[4.2.0]octan-2-yl)methyl)-1-(((S)-oxetan-2-yl)methyl)-1H-benzo[d]imidazole-6-carboxylic acid] were, in that order, 7 nM and 7.3 nM.
The matching figures for `COc1cc2nc(CN3CCN(c4cccc5c4OC(C)(c4ccc(Cl)cn4)O5)[C@H]4CC[C@@H]43)n(C[C@@H]3CCO3)c2cc1C(=O)O` (mixture of isomers) [Example 12, 2-(((1RS,6RS)-5-(2-(5-Chloropyridin-2-yl)-2-methylbenzo[d][1,3]dioxol-4-yl)-2,5-diazabicyclo[4.2.0]octan-2-yl)methyl)-5-methoxy-1-(((S)-oxetan-2-yl)methyl)-1H-benzo[d]imidazole-6-carboxylic acid]: 200 nM and 320 nM.
